Active and inactive are the calls of the source. How the calls were made is not given here.

In general, IC50 refers to the concentration that inhibits the measured activity by half.

The assay deals with Trypanosoma brucei growth inhibition, luminescence. Nature of the assay: antitrypanosomal activity against T. brucei – luminescence (AID 1159562).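 Further: parasites grew with compound for 24 h before the luminescence read.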
Turning to `Cc1c(C#N)c([N+](=O)[O-])nn1Cc1cccc(Cl)c1Cl`, the concentration for half-maximal inhibition (IC50) is 25 µM. For `CC(C)c1cc(C(=O)N2CCCC(c3cc4ncccc4[nH]3)C2)on1` (stereo not drawn), the IC50 is > 40 µM (inactive). `CC(C)(C)C(=O)NCCc1csc(-c2ccc(F)cc2)n1`: the concentration for half-maximal inhibition (IC50) is 0.79 µM.

Turning to `O=C(Nc1ccc(C(F)(F)F)cc1)Nc1cccc([N+](=O)[O-])c1`, the IC50 is 2 µM. The same measure for `O=C(c1cnn(-c2ccccc2)n1)N1CCCC(n2ccnc2)C1` (stereo not drawn): 32 µM. As for `CN(C)CCN(C)Cc1ccc(Cl)cc1NS(=O)(=O)c1ccc(Cl)c(Cl)c1`, the IC50 was 4 µM.

Consider `O=C(C1CCCCC1)N1CCN(c2nnc(-c3ccccc3)c3ccccc23)CC1`, for which the IC50 is > 40 µM (inactive). In the case of `O=C(NCC1CCCCC1)c1cnns1`, the IC50 was 1.3 µM.

Consider `CCCc1cc(C(=O)Nc2ncc(-c3cccc(Br)c3)n2C)n[nH]1`, for which the IC50 was 1.3 µM. Turning to `O=C(Cn1cnc2c(-c3ccccc3)csc2c1=O)N1CCCCC1`, the IC50 was 1 µM. The same measure for `COc1ncc(-c2ccc3ncnc(N4CCOCC4)c3c2)cc1NS(C)(=O)=O`: 0.5 µM; for `CNc1cc(C)nc(C2CN(C(=O)c3n[nH]c4ccccc34)CCO2)c1` (stereo not drawn): > 40 µM (inactive). On to `O=C(Nc1nc(-c2ccccn2)cs1)C1CCc2ccccc2C1` (stereo not drawn), for which the 50% inhibitory concentration (IC50) was 3.2 µM. In the case of `CC(C)(C)C(Cn1ccnc1)NC(=O)c1ccc2nc(C3CC3)oc2c1` (stereo not drawn), the IC50 was > 40 µM (inactive). As for `Cc1c(C(C)NC(=O)Nc2cccc(Cl)c2)sc2ncnn12` (stereo not drawn), the IC50 was > 40 µM (inactive). On to `Fc1ccccc1N1C[C@H]2CCN(c3cccnc3)C[C@H]2C1`, for which the IC50 is > 40 µM (inactive).

In the case of `O=C(Nc1nc2ccccc2[nH]1)c1c(O)c2cccc3c2n(c1=O)CC3`, the IC50 was 20 µM. `Cc1c(C(=O)NCCCCn2ccnc2)oc2c(C)cccc12`: the IC50 is > 40 µM (inactive).

Regarding `COc1ccccc1C1CC(c2ccc(NS(C)(=O)=O)cc2)=NN1C(=O)c1cccs1` (stereo not drawn), the IC50 is 20 µM. With `Nc1cc(-c2ccc3ncnc(N4CCOCC4)c3c2)cnc1N`, the half-maximal inhibitory concentration (IC50) was 0.16 µM. In the case of `COc1ccc2c(Cl)c(C(=O)N3CCC3)sc2c1Cl`, the IC50 was > 40 µM (inactive). In the case of `Cn1nccc1-c1cc(OC(CN)c2ccccc2)cnc1-c1ccco1` (stereo not drawn), the half-inhibitory concentration (IC50) was 16 µM. Regarding `Cn1cncc1CN1CCC2(CC1)COC(Cc1ccccc1)C2` (stereo not drawn), the IC50 was > 40 µM (inactive). Regarding `Cc1ccc2ccc(C(Nc3ccccn3)c3cccnc3)c(O)c2n1` (stereo not drawn), the IC50 was 4 µM. As to `Cc1nc(N2CC(C)OC(C)C2)sc1C(=O)Nc1ccc2c(c1)OCO2` (stereo not drawn), the IC50 is > 40 µM (inactive). The same measure for `Cc1ccc(NC(=O)C(C)n2nc([N+](=O)[O-])c(Br)c2C)cc1Cl` (stereo not drawn): > 40 µM (inactive); for `NC(=O)c1cc(F)ccc1Nc1nc(NC2CCC(O)CC2)ncc1Br` (stereo not drawn): 0.32 µM. As for `OC1CCC(Nc2nccc(-c3sc(C4CCOCC4)nc3-c3ccc(F)c(F)c3)n2)CC1` (stereo not drawn), the IC50 is 4 µM. For `CCC(CC)C(=O)Nc1ccc(-c2nnc(-c3ccc(OC)cc3)o2)cc1`, the IC50 was 0.5 µM. As to `COc1ccc(C2CC(c3ccccc3Cl)=NN2C(=O)CNC(=O)C2CCC2)cc1` (stereo not drawn), the concentration for half-maximal inhibition (IC50) is 0.5 µM.

Regarding `O=C(NCCc1csc(-c2ccc(F)cc2)n1)c1cccs1`, the IC50 is 0.2 µM. Consider `COc1ccc2nccc([C@H](O)CN3CC[C@H](NC(=O)c4ccc(Br)cc4)[C@@H](O)C3)c2n1`, for which the concentration for half-maximal inhibition (IC50) is 0.5 µM. On to `O=C(CC1(O)C(=O)N(Cc2cccs2)c2ccc(Br)cc21)c1cccnc1` (stereo not drawn), for which the concentration for half-maximal inhibition (IC50) was 0.79 µM. On to `Cc1cccc(NS(=O)(=O)c2cnc3sc(C)cn3c2=O)c1`, for which the IC50 is > 40 µM (inactive). Regarding `CCc1c(C)nc(-n2nc(C)cc2NC(=O)COc2ccccc2F)[nH]c1=O`, the IC50 was 0.2 µM. For `O=C(c1cccc(Nc2ncc(-c3ccc4c(c3)OCO4)cn2)c1)N1CCOCC1`, the IC50 was > 50 µM (inactive). As for `Cc1ccc(Nc2nc(N)nc(CNC(c3nc4ccccc4[nH]3)C(C)C)n2)cc1` (stereo not drawn), the IC50 was 5 µM. Turning to `O=c1[nH]c(NCCCNCc2cc(Br)cc(Br)c2)nc2ccsc12`, the IC50 was 0.1 µM.

`Fc1ccc(OC2CC(NCc3cccc4cn[nH]c34)C2)cc1C(F)(F)F` (stereo not drawn): the half-inhibitory concentration (IC50) was 10 µM. The same measure for `N#Cc1ccc(S(=O)(=O)N2CCN(Cc3cccc(-c4ccncc4)c3)CC2)cc1`: 20 µM. The same measure for `CN(Cc1nc2c(C(=O)N3CCN(Cc4ccccc4)CC3)cccc2[nH]1)C1CCCc2cccnc21` (stereo not drawn): 1 µM; for `CC(C)S(=O)(=O)c1ccc(-c2cnc(N)c3cc(-c4ccnc(N)n4)ccc23)cc1`: 0.25 µM; for `Cc1ccc(C)c(OC2CCN(C(=O)C(C)n3ccnc3)CC2)c1` (stereo not drawn): > 40 µM (inactive). The same measure for `CNc1c(C(N)=O)c(-c2ccc3scnc3c2)nn1CC(F)(F)F`: > 40 µM (inactive); for `CC(=O)Nc1nc(-c2cc(C)ccc2C)c(C)s1`: > 40 µM (inactive); for `COc1cccc(S(=O)(=O)Nc2ccc3c(c2)CC(N2CCC(NC(=O)C4CC4)CC2)C3)c1` (stereo not drawn): 0.79 µM.

With `COc1ccc(NS(=O)(=O)c2cc(NC(=O)c3ccc([N+](=O)[O-])s3)ccc2OC)cc1`, the IC50 was 0.13 µM.

On to `O=C(COc1ccccc1)Nc1ccccc1C(=O)Nc1nccs1`, for which the IC50 was 0.63 µM. For the compound `O=C(NCCc1ccn(-c2ccccc2)n1)C1CCCCC1`, the IC50 was 0.32 µM. `O=C(Cc1ccccc1)Nc1[nH]nc2sc(C(=O)NC3CCCC3)cc12`: the half-maximal inhibitory concentration (IC50) is 0.32 µM. `COc1cc(F)c2ncc(F)c(CCN3CC[C@H](NCc4cc5c(cn4)OCS5)[C@@H](O)C3)c2c1`: the 50% inhibitory concentration (IC50) is 0.5 µM. Turning to `COc1cnc2ccc(=O)n(CCN3CCC(NC(=O)Cc4ccc(Cl)c(Cl)c4)CC3)c2c1`, the IC50 was 0.5 µM. As to `c1ccc(-c2nc(NCc3ccco3)c3ccccc3n2)nc1`, the IC50 is 6.3 µM.

Turning to `COc1ccc(-c2csc(NC(=O)c3ccc([N+](=O)[O-])s3)n2)cc1OC`, the concentration for half-maximal inhibition (IC50) is 0.63 µM. In the case of `O=C(Nc1nc2cc(Cl)ccc2o1)c1cccc(Cl)c1`, the IC50 was 0.79 µM. With `CCc1cccc(CC)c1-n1c(SCC(=O)NC(=O)NCc2ccco2)nnc1-c1cccnc1`, the IC50 is 0.79 µM.

Regarding `CN(Cc1nc2ccc(C(=O)NCC3CCCCC3)cc2[nH]1)C1CCCc2cccnc21` (stereo not drawn), the IC50 was 0.32 µM.

In the case of `FC(F)(F)c1cc(C2CCCN(Cc3c[nH]c4ccccc34)C2)nc2ncnn12` (stereo not drawn), the IC50 is > 40 µM (inactive). The same measure for `C[C@@H](Oc1cc(-n2cnc3cc(N)ccc32)sc1C(N)=O)c1ccccc1Cl`: 0.79 µM. As for `Cc1nn(-c2ccccc2)nc1CNC(=O)CN(Cc1ccccn1)Cc1ccccn1`, the IC50 is 10 µM. Regarding `O=C(NCC(c1cccnc1)N1CCc2ccccc2C1)C(=O)Nc1cccc(Cl)c1` (stereo not drawn), the 50% inhibitory concentration (IC50) was 20 µM. In the case of `COc1cc(Cl)c(C)cc1NC(=O)c1ccc([N+](=O)[O-])s1`, the IC50 was 10 µM. The same measure for `O=C(Nc1n[nH]c(-c2ccccn2)n1)C1CC1c1ccccc1` (stereo not drawn): 20 µM; for `CN(Cc1nc2ccccc2s1)C(=O)C=Cc1cc2ccccc2o1`: > 40 µM (inactive). The same measure for `O=C(Nc1cccc(F)c1)N1CCC(Oc2cccc(-c3cccnc3)c2)CC1`: > 40 µM (inactive); for `O=c1cc(NCCCNCc2c[nH]c3ccc(Br)cc23)[nH]c2ccccc12`: 0.79 µM; for `CNc1cncc(C2CCCN2C(=O)Cc2ccc3ccccc3c2)n1` (stereo not drawn): > 40 µM (inactive). For `Cc1cccc(NS(=O)(=O)c2ccc3c(c2)C(=O)c2cc(S(=O)(=O)Nc4cccc(C)c4C)ccc2-3)c1C`, the IC50 is 10 µM. Turning to `Nc1nc(-c2ccccc2)cc(-c2nc3ncccc3[nH]2)n1`, the IC50 was 16 µM. As to `O=C(NCCc1csc(-c2cccc(F)c2)n1)c1ccco1`, the IC50 was 0.63 µM.

Take `O=C1NCc2cccc(Nc3nc(NC4CCC(O)CC4)ncc3Br)c21` (stereo not drawn): the half-inhibitory concentration (IC50) is 0.13 µM. The same measure for `COc1ccc(NS(=O)(=O)c2cc(NC(=O)Cc3ccc(C)cc3)ccc2N2CCOCC2)cc1`: 7.9 µM; for `O=C(NC1CCN(C2Cc3ccc(NS(=O)(=O)c4cc(F)cc(F)c4)cc3C2)CC1)C1CC1` (stereo not drawn): 0.79 µM; for `O=C(CN(Cc1ccccn1)Cc1ccccn1)NC1Cc2ccccc2C1`: 13 µM.

Turning to `CCC(CC)C(=O)Nc1cccc(C(=O)Nc2nnc(C3CCCCC3)s2)c1`, the half-maximal inhibitory concentration (IC50) is 0.63 µM.

Regarding `CCOc1ccc(CC(=O)N2c3ccccc3CC2C(=O)NC)cc1` (stereo not drawn), the IC50 was 0.5 µM. The same measure for `CCOc1ccc(CN(C)Cc2nc(N)nc(Nc3ccc(C)cc3)n2)cc1`: 2 µM; for `NC(=O)c1ccsc1NC(=O)c1ccc([N+](=O)[O-])s1`: 1.6 µM.

For the compound `O=C1CN(C(=O)c2cccc(Nc3ncc(-c4ccc5c(c4)OCO5)cn3)c2)CCN1`, the IC50 is > 50 µM (inactive). Consider `COc1ncc(-c2ccc3nccc(-c4ccncc4)c3c2)cc1NS(=O)(=O)C1CC1`, for which the half-inhibitory concentration (IC50) was 0.4 µM. Turning to `CNc1cc(Cn2c(C(=O)c3cc(C)cc(Cl)c3)c(C(C)C)c(=O)[nH]c2=O)ccn1`, the IC50 was 25 µM. Consider `Cc1nc2c(-c3cccs3)c(C)nn2c(NCCO)c1C`, for which the IC50 was 0.2 µM.

As to `COc1cc(Nc2nccc(Nc3onc(C)c3C)n2)cc(S(=O)(=O)C2CCOCC2)c1`, the IC50 was 0.5 µM.

With `CN(CC1CCCO1)S(=O)(=O)c1ccc(C(=O)Nc2nc(-c3ccccn3)cs2)cc1` (stereo not drawn), the IC50 was 0.63 µM. The same measure for `CCN(CC)c1ncc(C(=O)c2ccc([N+](=O)[O-])o2)s1`: 0.4 µM; for `COCc1cc(Nc2ccccc2)nc(-c2ccccn2)n1`: > 40 µM (inactive); for `CC(CCc1ccccc1)NC(=O)CN(Cc1ccccn1)Cc1ccccn1` (stereo not drawn): 5 µM.

Turning to `COc1ccc(C2CC(c3ccccc3Cl)=NN2C(=O)CNC(=O)C2CCCC2)cc1` (stereo not drawn), the IC50 is 0.79 µM.

In the case of `O=C(c1cc2cc(Cl)ccc2[nH]1)N1CCCCC1c1cccnc1` (stereo not drawn), the concentration for half-maximal inhibition (IC50) was 16 µM. The same measure for `O=C(Nc1ccc(C(=O)N2CCCC2c2ccc3c(c2)OCCCO3)cc1)c1ccco1` (stereo not drawn): 0.32 µM. On to `COc1ccc(OC)c(S(=O)(=O)N(Cc2c(F)cccc2F)[C@@H]2CCN(C#N)C2)c1`, for which the concentration for half-maximal inhibition (IC50) is 0.79 µM. For `CC(C)COC(=O)Nc1ccc(N2CCC(CNS(=O)(=O)c3ccccc3)CC2)c(F)c1`, the IC50 is 20 µM. Take `COc1ccc(CNc2cc(C3CC3)nc(-c3nccn3C)n2)cc1`: the IC50 is 2.5 µM.
